Test results reported in PubChem BioAssay AID2060495 (Molecular Pharmacology Branch, DTP, NCI, 2025).
pIC50: −log10 of the molar value.

Tested on: 521955-158-R2-J5-PDC complex spheroid viability
Assay: Anticancer human tumor 521955-158-R2-J5-PDC patient-derived pancreatic carcinoma cell line growth inhibition [GQUAD]
Settings: for pIC50: curve of first compound; for viability, T/C: stronger effect = lower value
Summary of the method: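 Viability of tumor cells grown as complex spheroids with endothelial and stromal cells, exposed to drug combinations. Top concentration at or near clinical Cmax (else 10 microM), diluted in half-log increments.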

[1] = second compound 0.0316 µM, first compound 0.0316 µM
[2] = second compound 0.0316 µM, first compound 0.1 µM
[3] = second compound 0.0316 µM, first compound 0.316 µM
[4] = second compound 0.0316 µM, first compound 1 µM
[5] = second compound 0.0316 µM, first compound 3.16 µM
[6] = second compound 0.0316 µM, first compound 10 µM
[7] = second compound 0.1 µM, first compound 0.0316 µM
[8] = second compound 0.1 µM, first compound 0.1 µM
[9] = second compound 0.1 µM, first compound 0.316 µM
[10] = second compound 0.1 µM, first compound 1 µM
[11] = second compound 0.1 µM, first compound 3.16 µM
[12] = second compound 0.1 µM, first compound 10 µM
[13] = second compound 0.316 µM, first compound 0.0316 µM
[14] = second compound 0.316 µM, first compound 0.1 µM
[15] = second compound 0.316 µM, first compound 0.316 µM
[16] = second compound 0.316 µM, first compound 1 µM
[17] = second compound 0.316 µM, first compound 3.16 µM
[18] = second compound 0.316 µM, first compound 10 µM
[19] = second compound 1 µM, first compound 0.0316 µM
[20] = second compound 1 µM, first compound 0.1 µM
[21] = second compound 1 µM, first compound 0.316 µM
[22] = second compound 1 µM, first compound 1 µM
[23] = second compound 1 µM, first compound 3.16 µM
[24] = second compound 1 µM, first compound 10 µM
[25] = second compound 3.16 µM, first compound 0.0316 µM
[26] = second compound 3.16 µM, first compound 0.1 µM
[27] = second compound 3.16 µM, first compound 0.316 µM
[28] = second compound 3.16 µM, first compound 1 µM
[29] = second compound 3.16 µM, first compound 3.16 µM
[30] = second compound 3.16 µM, first compound 10 µM
[31] = second compound 10 µM, first compound 0.0316 µM
[32] = second compound 10 µM, first compound 0.1 µM
[33] = second compound 10 µM, first compound 0.316 µM
[34] = second compound 10 µM, first compound 1 µM
[35] = second compound 10 µM, first compound 3.16 µM
[36] = second compound 10 µM, first compound 10 µM
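Note: spheroids exposed to agents for one week before reading.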
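Throughout, for viability, T/C: 100% = DMSO vehicle control viability.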

O=c1[nH]cc(F)c(=O)[nH]1 + CN(C)c1ccc(Nc2c3ccc(NC(=O)CCN4CCCC4)cc3nc3cc(NC(=O)CCN4CCCC4)ccc23)cc1
pIC50 (second compound 0.0316 µM): < 5.00 | pIC50 (second compound 0.1 µM): < 5.00 | pIC50 (second compound 0.316 µM): < 5.00 | pIC50 (second compound 1 µM): < 5.00 | pIC50 (second compound 3.16 µM): < 5.00 | pIC50 (second compound 10 µM): < 5.00 | viability, T/C [1]: 103% | viability, T/C [2]: 112% | viability, T/C [3]: 97.8% | viability, T/C [4]: 105% | viability, T/C [5]: 109% | viability, T/C [6]: 51.5% | viability, T/C [7]: 91.3% | viability, T/C [8]: 88.9% | viability, T/C [9]: 95.9% | viability, T/C [10]: 93.4% | viability, T/C [11]: 95% | viability, T/C [12]: 56.1% | viability, T/C [13]: 91.3% | viability, T/C [14]: 92.7% | viability, T/C [15]: 108% | viability, T/C [16]: 96.8% | viability, T/C [17]: 94.4% | viability, T/C [18]: 58.5% | viability, T/C [19]: 80.9% | viability, T/C [20]: 82.8% | viability, T/C [21]: 86.1% | viability, T/C [22]: 101% | viability, T/C [23]: 94.8% | viability, T/C [24]: 55.9% | viability, T/C [25]: 86.4% | viability, T/C [26]: 87.4% | viability, T/C [27]: 97.1% | viability, T/C [28]: 85% | viability, T/C [29]: 93.9% | viability, T/C [30]: 53.4% | viability, T/C [31]: 58.5% | viability, T/C [32]: 58.1% | viability, T/C [33]: 75.3% | viability, T/C [34]: 65.3% | viability, T/C [35]: 66.1% | viability, T/C [36]: 49.5%

COc1ncnc(C2CC2)c1-c1ncc2cnn(Cc3ccc(-c4nc(C(F)(F)F)cn4C(C)C)cc3)c2n1 + Cc1cnc(CNC(=O)c2c(=O)c3ccc(N4CCCN(C)CC4)nc3n3c2sc2ccccc23)cn1
pIC50 (second compound 0.0316 µM): < 5.00 | pIC50 (second compound 0.1 µM): < 5.00 | pIC50 (second compound 0.316 µM): > 7.50 | pIC50 (second compound 1 µM): > 7.50 | pIC50 (second compound 3.16 µM): > 7.50 | pIC50 (second compound 10 µM): > 7.50 | viability, T/C [1]: 92.4% | viability, T/C [2]: 73.3% | viability, T/C [3]: 96.7% | viability, T/C [4]: 71.9% | viability, T/C [5]: 94.3% | viability, T/C [6]: 85.5% | viability, T/C [7]: 58% | viability, T/C [8]: 58.6% | viability, T/C [9]: 53.1% | viability, T/C [10]: 55.9% | viability, T/C [11]: 57.2% | viability, T/C [12]: 55.2% | viability, T/C [13]: 30.3% | viability, T/C [14]: 31.6% | viability, T/C [15]: 31.4% | viability, T/C [16]: 31.5% | viability, T/C [17]: 28.1% | viability, T/C [18]: 25.6% | viability, T/C [19]: 19.3% | viability, T/C [20]: 17.7% | viability, T/C [21]: 17% | viability, T/C [22]: 17.4% | viability, T/C [23]: 18.8% | viability, T/C [24]: 16.6% | viability, T/C [25]: 14.5% | viability, T/C [26]: 14.3% | viability, T/C [27]: 16.4% | viability, T/C [28]: 13.2% | viability, T/C [29]: 13.7% | viability, T/C [30]: 12.8% | viability, T/C [31]: 13% | viability, T/C [32]: 11.2% | viability, T/C [33]: 9.95% | viability, T/C [34]: 13.9% | viability, T/C [35]: 6.73% | viability, T/C [36]: 6.37%
